According to patent US20080254016A1, “Composition For Increasing Anti-Oxidation Activity In Blood” (Kaneka Corporation, priority 2005, published 2008):

Columns and labels:
[1] = Reduced coenzyme Q10 ratio in plasma after oral administration, 62-week-old SD rats (Example 2); format: in vivo
Excerpt: (§1) The ratio of the reduced form to the total coenzyme Q10 is generally determined by a method comprising quantifying oxidized coenzyme Q10 and reduced coenzyme Q10 in a sample by high performance liquid chromatography (HPLC) using an UV detector and calculating the ratio from the volume ratio obtained, or a method comprising using an HPLC system incorporated with an electrochemical detector for calculating the ratio of oxidized coenzyme Q10 and reduced coenzyme Q10 from the peak area. The HPLC system incorporated with an electrochemical detector makes it possible to specifically determine oxidation-reduction substances and has high sensitivity, and thus is highly useful for determining trace amount of reduced coenzyme Q10 in the living body or samples. In the present invention, all the reduced coenzyme Q10 ratios are determined by the HPLC system incorporated with an electrochemical detector.
(§2) In these Examples, the ratio of reduced coenzyme Q10 to the total coenzyme Q10 was determined using the HPLC system incorporated with an electrochemical detector (product of Shiseido Co., Ltd.) and a reduction column (product of Shiseido Co., Ltd.).
(§3) 10 SD rats (62-week-old, males) were divided into 2 groups each consisted of 5 rats so that each group had the same average body weight value. To one group, a solution of reduced coenzyme Q10in soybean oil (containing about 1% of oxidized coenzyme Q10) was orally administered, and to the other group, a solution of oxidized coenzyme Q10 in soybean oil was orally administered, each at the dose of 100 mg/kg body weight in coenzyme Q10 equivalent. Then, the reduced coenzyme Q10 ratio in plasma was determined with time lapses. Blood was collected after 1, 2, 4 and 8 hours of oral administration, and centrifuged to obtain plasma. The concentration of reduced coenzyme Q10 and oxidized coenzyme Q10 in the obtained plasma was quantified using HPLC in order to determine the ratio of the reduced form.

[2] = healthy person, intake of oxidized coenzyme Q10; cited from earlier work
[3] = Reduced coenzyme Q10 ratio in plasma after oral administration, 54-week-old SD rats (Example 1); format: in vivo
Excerpt: as §1, §2
as §3, with “(54-week-old,” for “(62-week-old,”, “Q10 in” for “Q10in”

[4] = Reduced coenzyme Q10 ratio in plasma after oral administration, 5-week-old SD rats (Reference Example 1); format: in vivo
Excerpt: as §1, with “The HPLC system incorporated with an electrochemical detector makes it possible to specifically determine oxidation-reduction substances and has high sensitivity, and thus is highly useful for determining trace amount of reduced coenzyme Q10 in the living body or samples.” left out
as §2
10 SD rats (5-week-old, males) were divided into 2 groups each consisted of 5 rats so that each group had the same average body weight value. […] Then, the reduced coenzyme Q10 ratio in plasma was determined with time lapses. […] The concentration of reduced coenzyme Q10 and oxidized coenzyme Q10 in the obtained plasma was quantified using HPLC in order to determine the reduced coenzyme Q10 ratio.

[5] = Reduced coenzyme Q10 ratio in plasma of healthy aged people fed soft capsules (Example 3); format: in vivo, human; conditions: healthy aged people 64 to 77 years old, two soft capsules (100 mg of coenzyme Q10), since 2 hours after administration
Excerpt: as §1, with “The HPLC system incorporated with an electrochemical detector makes it possible to specifically determine oxidation-reduction substances and has high sensitivity, and thus is highly useful for determining trace amount of reduced coenzyme Q10 in the living body or samples.” left out
as §2
Two soft capsules obtained in Preparation Example 5 and Comparative Preparation Example 1 (containing 100 mg of coenzyme Q10) were fed to two groups of healthy aged people (20 male and female individuals in each group, age: 64 to 77 years old), and the effect on the reduced coenzyme Q10 ratio in plasma was evaluated.

[6] = male, SD, rat, in vivo, po, 100 mg/kg, 1 h
[7] = male, SD, rat, in vivo, po, 100 mg/kg, 8 h

Compound | ratio of the reduced form of coenzyme Q10 in plasma [1, 6] | ratio of the reduced form of coenzyme Q10 in plasma [1, 7] | amount of reduced coenzyme Q10 in plasma [2] | ratio of reduced coenzyme Q10 to oxidized coenzyme Q10 in plasma [2] | ratio of the reduced form of coenzyme Q10 in plasma [3, 6] | ratio of the reduced form of coenzyme Q10 in plasma [3, 7] | difference in the reduced coenzyme Q10 ratio in plasma between administration of reduced and oxidized coenzyme Q10 ([4]; rat, in vivo, po, 100 mg/kg) | ratio of the reduced form of coenzyme Q10 in plasma ([1]; 62-week-old male SD rats, 100 mg/kg oral in soybean oil, over 1-8 hours) | ratio of the reduced form of coenzyme Q10 in plasma ([3]; 54-week-old male SD rats, 100 mg/kg oral in soybean oil, over 1-8 hours) | ratio of reduced coenzyme Q10 to the total coenzyme Q10 in plasma, time course [5] | difference in the reduced coenzyme Q10 ratio in plasma between administration of reduced and oxidized coenzyme Q10 ([4]; 5-week-old male SD rats, 100 mg/kg oral in soybean oil, after 2 hours or later of administration)
COC1=C(OC)C(=O)C(C/C=C(\C)CCC=C(C)CCC=C(C)CCC=C(C)CCC=C(C)CCC=C(C)CCC=C(C)CCC=C(C)CCC=C(C)CCC=C(C)C)=C(C)C1=O [oxidized coenzyme Q10] | about 74% | about 78% | increased | unchanged | about 76% | about 87% | almost no difference | – | – | – | –
COc1c(O)c(C)c(C/C=C(\C)CC/C=C(\C)CC/C=C(\C)CC/C=C(\C)CC/C=C(\C)CC/C=C(\C)CC/C=C(\C)CC/C=C(\C)CC/C=C(\C)CCC=C(C)C)c(O)c1OC [reduced coenzyme Q10] | – | – | – | – | – | – | – | around 90% | around 90% | increased with the lapse of time | almost no difference
